Measured values reported in patent US20240246913A1, “2-CARBOXYL-INDOLE INHIBITORS OF METALLO-BETA-LACTAMASES” (Oxford University Innovation Limited, priority 2021, published 2024).

How the values were obtained:
[1] = Metabolic stability in mouse hepatocytes; assay type: in vitro ADME; settings: cryopreserved mouse hepatocytes, 1 μM compound, 37° C., up to 90 min, read-out: Metabolic stability in hepatocytes, in vitro t1/2, Mouse
Experimental: (§1) Metabolic stability assays were performed in cryopreserved human and mouse hepatocytes. The hepatocytes were thawed and added to “Thawing media”, and centrifuged to pellet the hepatocytes. The cell pellet was taken up in Williams medium E (Invitrogen A1217601), the number of cells was calculated and adjusted to 1.0×10^6 cells/mi. The incubation was carried out on a heater-shaker at […], in a 24-well Picoplate (round bottom, PerkinElmer), using an incubation volume of […]. Thus, to obtain a final compound concentration of 1 μM, 0.7 μl of the 1 mM compound stock solution was pipetted to the wells of the plate. Reaction was initiated by adding 700 μl of cell suspension. Samples were incubated at 37° C. for […] and a zero sample was taken, i.e. 100 μl sample was removed to a 96-well plate and the reaction was quenched by adding 100 μl of 100% MeCN containing 50 nM Warfarin as an internal control. Consecutive samples were taken at time-points 5 min, 15 min, 30 min, 60 min, and 90 min. After finishing the experiment, samples were centrifuged at 3000 rpm for 15 min and before analysis by LC-MS/MS (Waters Corp, Milford, MA, USA).

VIM-1 = VIM-1 (Pseudomonas aeruginosa, UniProt A0A0F7KYQ8); assay: MBL inhibition, FC-5 fluorescence assay, VIM-1; assay type: biochemical; settings: FC-5 cephalosporin substrate, ranges of obtained pIC50, read-out: pIC50 VIM-1 (converted)
In short: (§2)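 Compound dilutions are incubated with enzyme and FC-5; the released fluorophore is read kinetically at ex 380/em 460 nm. Initial velocities are normalized and fitted (log inhibitor vs response, variable slope).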

bacteria = assay: Thigh and/or septicaemia mouse model of infection, with meropenem; assay type: in vivo; settings: NMRI mice; single dose with meropenem subcutaneous 1 h after inoculation; endpoint 3 h after treatment initiation
Experimental: Female NMRI mice (5-6 weeks old, 26-30 gram, n=5) were rendered neutropenic via intraperitoneal injection of two doses of cyclophosphamide on day 4 and day 1 before infection. The animals were infected via intramuscular injection of an inoculum containing 10^6 CFU/mL of bacteria in the left thigh. The animals were treated with a single dose of meropenem subcutaneous +/− inhibitor 1 h after inoculation, and animals were either euthanised at the start of treatment or at the study endpoint at 3 h after treatment initiation. Clinical scores were monitored at 1 and 4 hours post inoculation and were in all cases mild or moderate. Thighs were aseptically removed from the animals, homogenised, diluted, and plated for incubation. Bacterial counting was performed after 18-22 h of incubation at 35° C. in ambient air.
Immunocompetent female NMRI mice mice (5-6 weeks old, 26-30 gram, n=5) were inoculated intraperitoneally with 0.5 ml inoculum containing 5×10^5 CFU suspended in 5% porcine mucin.
The animals were treated with a single dose of meropenem subcutaneous+/−metallo-b-lactamase inhibitor intravenous 1 h after inoculation. Animals were either euthanised at the start of treatment or at the study endpoint at 3 h after treatment initiation. Clinical scores were monitored at 1 and 4 hours post inoculation and were in all cases mild or moderate. Mice were anaesthetised anesthetized with a buprenorphine/tiletamine/zolazepam cocktail and bled, then euthanized and the peritoneum flushed with 2 ml sterile 0.9% NaCl and collected. The blood and/or peritoneal flush were serially diluted and plated for incubation. Bacterial counting was performed after 18-22 h of incubation at 35° C. in ambient air.

[2] = Plasma protein binding, equilibrium dialysis, human plasma; assay type: in vitro ADME; settings: pH 7.4, equilibrium dialysis (RED) 4 hours at 37° C., read-out: Plasma protein binding, fu, Human
In short: (§3)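 Compound at 10 μM in plasma dialysed against 67 mM phosphate buffer pH 7.4 for 4 h at 37° C. in RED device; unbound fraction from buffer and plasma levels by LC-MS/MS. Plasma stability checked in parallel over 4 h at 37° C. versus frozen control.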

NDM-1 = NDM-1 (Klebsiella pneumoniae, UniProt C7C422); assay: MBL inhibition, FC-5 fluorescence assay, NDM-1; assay type: biochemical; settings: FC-5 cephalosporin substrate, fluorescence; ranges of obtained pIC50; read-out: pIC50 NDM-1 (converted)
In short: as §2

[3] = Metabolic stability in human hepatocytes; assay type: in vitro ADME; settings: cryopreserved human hepatocytes, 1 μM compound, 37° C., up to 90 min, read-out: Metabolic stability in hepatocytes, in vitro t1/2, Human
Experimental: as §1

[4] = Plasma protein binding, equilibrium dialysis, mouse plasma; assay type: in vitro ADME; settings: pH 7.4, equilibrium dialysis (RED) 4 hours at 37° C., read-out: Plasma protein binding, fu, Mouse
In short: as §3

VIM-2 = VIM-2 (Escherichia coli, UniProt Q5U7L7); assay: MBL inhibition, FC-5 fluorescence assay, VIM-2; assay type: biochemical; settings: FC-5 cephalosporin substrate, ranges of obtained pIC50, read-out: pIC50 VIM-2 (converted)
In short: as §2

IMP-1 = IMP-1 (Serratia marcescens, UniProt P52699); assay: MBL inhibition, FC-5 fluorescence assay, IMP-1; assay type: biochemical; settings: FC-5 cephalosporin substrate, fluorescence; ranges of obtained pIC50; read-out: pIC50 IMP-1 (converted)
In short: as §2

[5] = system: Acinetobacter baumannii NDM-1; assay: Antibiotic susceptibility testing (MIC), AB NDM-1; assay type: cell-based; settings: agar or broth dilution (CLSI/EUCAST)
Experimental: (§4) Antibiotic susceptibility testing was performed using the agar or broth dilution method, in line with the Clinical and Laboratory Standards Institute (CLSI) and European Committee on Antimicrobial Susceptibility Testing (EUCAST) requirements.

Escherichia coli NDM-7 = assay: Antibiotic susceptibility testing (MIC), EC NDM-7; assay type: cell-based; settings: agar or broth dilution (CLSI/EUCAST)
Experimental: as §4

Escherichia coli NDM-1 = assay: Antibiotic susceptibility testing (MIC), EC NDM-1; assay type: cell-based; settings: agar or broth dilution (CLSI/EUCAST)
Experimental: as §4

Sequence of IMP-1 (P52699 19-246, looked up, species assumed): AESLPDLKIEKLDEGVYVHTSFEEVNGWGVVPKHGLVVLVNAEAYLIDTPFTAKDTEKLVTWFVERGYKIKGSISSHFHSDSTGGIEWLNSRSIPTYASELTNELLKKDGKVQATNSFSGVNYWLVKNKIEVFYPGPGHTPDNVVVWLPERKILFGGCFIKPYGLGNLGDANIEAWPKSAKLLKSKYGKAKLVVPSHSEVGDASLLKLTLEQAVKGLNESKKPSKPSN
Sequence of NDM-1 (C7C422 29-270, looked up, species assumed): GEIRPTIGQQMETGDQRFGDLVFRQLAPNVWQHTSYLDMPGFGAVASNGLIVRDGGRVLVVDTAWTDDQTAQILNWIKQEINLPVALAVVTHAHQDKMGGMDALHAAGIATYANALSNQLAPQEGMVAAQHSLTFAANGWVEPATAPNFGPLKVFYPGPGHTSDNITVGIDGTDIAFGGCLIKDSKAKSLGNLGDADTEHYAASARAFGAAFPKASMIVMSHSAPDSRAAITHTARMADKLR

Row | SMILES | half-life at 1 μM [1] [h] | IC50 (VIM-1) [nM] | Dose required to reduce minim 1 log fold CFU in a thigh and or a sepsis animal model (bacteria) | fraction unbound at 4 h, 10 μM [2] | IC50 (NDM-1) [nM] | half-life at 1 μM [3] [h] | fraction unbound at 4 h, 10 μM [4] | IC50 (VIM-2) [nM] | IC50 (IMP-1) [nM] | MIC values AB NDM-1 [5] | MIC values EC NDM-7 (Escherichia coli NDM-7) | MIC values EC NDM-1 (Escherichia coli NDM-1)
1 | CC(NC(=O)c1ccc(CN)cc1)c1cccc2c(-c3ccc(CN4CCOCC4)nc3)c(C(=O)O)[nH]c12 (stereo not drawn) [IC-11, 7-(1-((4-(Aminomethyl)benzoyl)amino)ethyl)-3-(6-(morpholin-4-ylmethyl)pyridin-3-yl)-1H-indole-2-carboxylic acid] | > 6.67 | > 10 | B (B = 30-10 mg/kg) | > 0.25 | < 0.1 | > 6.67 | 0.005 to 0.05 | 1 to 10 | > 10 |  |  | 
2 | C[C@@H](c1cccc2c(-c3ccc(NS(C)(=O)=O)c(F)c3)c(C(=O)O)[nH]c12)N1C[C@]2(C[C@@H](CN)C2)OC1=O [IC-14, 7-((S)-1-((2S,4r)-2-(Aminomethyl)-6-oxo-5-oxa-7-azaspiro[3.4]octan-7-yl)ethyl)-3-(3-fluoro-4-(methylsulfonamido)phenyl)-1H-indole-2-carboxylic acid] | 2.5 to 6.67 | 0.1 to 1 | C (C = 5-10 mg/kg) | 0.05 to 0.25 | < 0.1 | > 6.67 | 0.05 to 0.25 | 0.1 to 1 | > 10 | B (B MIC values 2 ÷ 8) | A (A = MIC values ≤ 1) | A (A = MIC values ≤ 1)
3 | COc1cc(-c2c(C(=O)O)[nH]c3c([C@H](C)N4C[C@]5(C[C@@H](CN)C5)OC4=O)cccc23)ccn1 [IC-17, 7-((1S)-1-(2-(aminomethyl)-6-oxo-5-oxa-7-azaspiro[3.4]octan-7-yl)ethyl)-3-(2-methoxypyridin-4-yl)-1H-indole-2-carboxylic acid] | 2.5 to 6.67 | 1 to 10 | B (B = 30-10 mg/kg) | 0.05 to 0.25 | 0.1 to 1 | > 6.67 | 0.005 to 0.05 | < 0.1 | > 10 | B (B MIC values 2 ÷ 8) | A (A = MIC values ≤ 1) | A (A = MIC values ≤ 1)
4 | C[C@@H](c1cccc2c(-c3ccnc(O)c3)c(C(=O)O)[nH]c12)N1C[C@]2(C[C@@H](CN)C2)OC1=O [IC-18, 7-((S)-1-((2S,4r)-2-(aminomethyl)-6-oxo-5-oxa-7-azaspiro[3.4]octan-7-yl)ethyl)-3-(2-hydroxypyridin-4-yl)-1H-indole-2-carboxylic acid] | > 6.67 | 1 to 10 | C (C = 5-10 mg/kg) | > 0.25 | 0.1 to 1 | < 2.5 | 0.005 to 0.05 | 0.1 to 1 | > 10 | B (B MIC values 2 ÷ 8) | A (A = MIC values ≤ 1) | A (A = MIC values ≤ 1)
